Laboratory results: the supplement of paper PMC8988213
Structures can show the parent of a compound that is named as a salt.

Tests used:
[1] = tested on: ID188 patient-derived PDAC 2D line (pre-FOLFIRINOX); assay: normalised area under dose-response curve (viability relative to DMSO, 7 doses up to 10 µM) (fraction (AUC)); higher = less sensitive (more viability retained); conditions: 72 h; top dose: 10 µM
In short: (§1)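 Patient-derived 2D PDAC cells grown out from organoids were seeded robotically at 1,500–3,000 cells/well in 96-well plates and incubated overnight at 37°C, 5% CO2. SelleckChem library compounds were added at seven concentrations (3-fold dilution series, highest 10 µM) for 72 h. CellTiter-Glo luminescence was read after 10 min. Viability was normalised to the DMSO control, and area under the dose-response curve was derived with the GRmetrics R package.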

[2] = tested on: ID211 patient-derived PDAC 2D line (post-FOLFIRINOX); assay: as above; conditions: 72 h; top dose: 10 µM
In short: as §1

SMILES | normalised area under dose-response curve [1] | normalised area under dose-response curve [2]
CC(=O)c1cc2c(o1)C(=O)c1ccccc1C2=O [Napabucasin] | 0.65 | 0.708
CCOc1cc2ncc(C#N)c(Nc3ccc(OCc4ccccn4)c(Cl)c3)c2cc1NC(=O)/C=C/CN(C)C [Neratinib (HKI-272)] | 0.893 | 0.638
COC(=O)c1ccc2c(c1)NC(=O)/C2=C(\Nc1ccc(N(C)C(=O)CN2CCN(C)CC2)cc1)c1ccccc1 [Nintedanib (BIBF 1120)] | 0.915 | 0.86
COC(=O)c1ccc2c(C(=Nc3ccc(N(C)C(=O)CN4CCN(C)CC4)cc3)c3ccccc3)c(O)[nH]c2c1 [Nintedanib Ethanesulfonate Salt] | 0.833 | 0.791
COc1ccc(C2=N[C@@H](c3ccc(Cl)cc3)[C@@H](c3ccc(Cl)cc3)N2C(=O)N2CCNC(=O)C2)c(OC(C)C)c1 [Nutlin-3] | 0.97 | 0.82
O=C(Nc1ccc(OC(F)(F)F)cc1)c1sccc1NCc1ccnc2ccccc12 [OSI-930] | 0.904 | 0.819
Cc1cc(O)c(-c2ccc([C@@H](C)CN)cc2)c2c1[nH]c(=O)c1sccc12 [OTS514 hydrochloride] | 0.368 | 0.443
Cc1sc2c(c1C)C(c1ccc(Cl)cc1)=N[C@@H](CC(=O)Nc1ccc(O)cc1)c1nnc(C)n1-2 [OTX015] | 0.817 | 0.631
COC[C@H](NC(=O)c1cnc(C)s1)C(=O)N[C@@H](COC)C(=O)N[C@@H](Cc1ccccc1)C(=O)[C@@]1(C)CO1 [Oprozomib (ONX 0912)] | 0.427 | 0.333
Cc1[nH]c(/C=C2\C(=O)Nc3ccccc32)c(C)c1CCC(=O)O [Orantinib (TSU-68, SU6668)] | 0.845 | 0.843
C=CC(=O)Nc1cc(Nc2nccc(-c3cn(C)c4ccccc34)n2)c(OC)cc1N(C)CCN(C)C [Osimertinib (AZD9291)] | 0.855 | 0.749
O=C(O)C(=O)O.[NH-][C@@H]1CCCC[C@H]1[NH-].[Pt+2] [Oxaliplatin] | 0.901 | 0.844
Cc1cc(CS(=O)(=O)c2ccccc2)cc(OCc2ccc(CN3CCC[C@@H]3CO)cc2)c1 [PF-543] | 0.924 | 0.903
O=C(Nc1cccnc1)N1CCC(Cc2cccc(Oc3ccc(C(F)(F)F)cn3)c2)CC1 [PF-3845] | 0.905 | 0.912
COc1ccccc1C(=O)Nc1cc2c(cc1N1CCCC1)n(C)c(=O)n2C [PFI-4] | 0.955 | 0.787
O=C(/C=C/c1ccc2ccccc2n1)c1ccncc1 [PFK15] | 0.911 | 0.778
CCCCCCCCCCCCc1ccc(S(=O)(=O)Nc2nncs2)cc1 [PHT-427] | 0.871 | 0.931
CC(=O)Nc1nc(C)c(-c2ccc(Cl)c(S(=O)(=O)NCCO)c2)s1 [PIK-93] | 0.927 | 0.807
CCCS(=O)(=O)Nc1ccc(F)c(C(=O)c2c[nH]c3ncc(Cl)cc23)c1F [PLX-4720] | 0.886 | 0.842
N#CSc1cc(SC#N)c(N)nc1N [PR-619] | 0.921 | 0.875
O=C1C2CCN(CC2)C1(CO)CO [PRIMA-1] | 0.947 | 0.867
O=C1C(=Cc2cccnc2)C(=O)c2ccccc21 [PRT4165] | 0.875 | 0.746
O=C(Nc1cc(Cl)cc2c1[nH]c1cnccc12)c1cccnc1 [PS-1145] | 0.923 | 0.839
